The source of these data is patent US20230390215A1 (AgoneX Biopharmaceuticals, Inc., priority 2021, published 2023).

In assay [1] the test system is subject suffering from migraine headaches. As for the experimental part: The patch is applied to the subject's skin for 4 hours. […] The size of the patch can vary from ¼ inch by ¼ inch to 1 inch by 1 inch depending on the desired dosage to be administered.
A subject suffering from migraine headaches is administered a 2″×2″ patch with a gel concentration of 30 μg/ml over a 24 hour period.
A subject suffering from migraine headaches is administered a 2″×2″ patch with a gel concentration of 2.7 μg/ml over a 24 hour period.

Assay [2] concerns subject suffering from Alzheimer's disease. Conditions: Example 4: transdermal patch, 10 μg/mL, applied every day for two hours a day over a month. On the procedure:
A subject suffering from Alzheimer's disease is treated with a transdermal patch as described herein. […] The treatment regimen occurred over the course of a month.

Consider `Cl.Cl.NCCc1c[nH]cn1` [histamine dihydrochloride], for which, in assay [1] (Example 3: transdermal patch comprising 30 μg/mL, applied to skin for 4 hours during a migraine event), the migraine events result is “treated or reduced”. Besides, in assay [1] (Example 6: 2″×2″ patch, gel concentration 2.7 μg/ml, 24 hour period), the “migraine headaches (intensity and duration)” value was “reduced in both intensity and duration”. The “Alzheimer's disease symptoms” value in assay [2] is “treated or reduced”.
